# Data reported in patent US20130078224A1, “INDUCTION/MONITORING OF ARTERIOGENESIS USING SDF1 AND PDGFB OR INHIBITION OF PHD2” (LIFE SCIENCES RESEARCH PARTNERS VZW, priority 2010, published 2013).
# B1: angiopoietin-1: Tie2 ligand cytokine (Peprotech) (protein, UniProt Q15389 16-498, looked up)
# Angiopoietin-1: HIGCSNQRRSPENSGRRYNRIQHGQCAYTFILPEHDGNCRESTTDQYNTNALQRDAPHVEPDFSSQKLQHLEHVMENYTQWLQKLENYIVENMKSEMAQIQQNAVQNHTATMLEIGTSLLSQTAEQTRKLTDVETQVLNQTSRLEIQLLENSLSTYKLEKQLLQQTNEILKIHEKNSLLEHKILEMEGKHKEELDTLKEEKENLQGLVTRQTYIIQELEKQLNRATTNNSVLQKQQLELMDTVHNLVNLCTKEGVLLKGGKREEEKPFRDCADVYQAGFNKSGIYTIYINNMPEPKKVFCNMDVNGGGWTVIQHREDGSLDFQRGWKEYKMGFGNPSGEYWLGNEFIFAITSQRQYMLRIELMDWEGNRAYSQYDRFHIGNEKQNYRLYLKGHTGTAGKQSSLILHGADFSTKDADNDNCMCKCALMLTGGWWFDACGPSNLNGMFYTAGQNHGKLNGIKWHYFKGPSYSLRSTTMMIRPLDF
# Experiments:
# [1] = early clinical trials in myocardial infarction; cited from earlier work
# F4/80+Tie2+ cells = experiment: Deletion of TEMs by GCV in Tie2:tk-BMT mice (F4/80 and Tie2 double staining of adductor); format: in vivo; conditions: GCV 50 mg/kg daily
# [2] = test system: secondary and tertiary collateral arteries; experiment: Collateralization and ischemic necrosis in Tie2:tk-BMT mice after GCV; format: in vivo; conditions: PHD2+/- Tie2:tk-BMT mice
# NF-κB [3] = experiment: NF-κB-responsive luciferase reporter assay in primary lung endothelial cells; format: cell-based, mice; conditions: WT and PHD2+/- ECs, TNF-α 20 ng/mL, eight hours
# Experimental: Transduction and Transfection of Bone Marrow-Derived Macrophages and Lung Endothelial Cells: To express an inducible NF-κB responsive firefly luciferase reporter, commercially available lentiviral vector particles (LV) were used (Cignal Lenti NF-κB Reporter; SABiosciences). 2.5×10^5 bone marrow-derived macrophages and 10^5 primary lung endothelial cells (isolated as previously described (Mazzone et al., 2009, see above)) were seeded in a 24-well plate in DMEM 10% FBS or M199 20% FBS for eight hours. Cells were transduced with 10^8 TU/ml. Eight hours after transduction, the medium wash was replaced. After 48 hours, cells were stimulated with TNFα (20 ng/mL) for eight hours and the same amount of protein extract was read in a luminometer. For PHD3 silencing, siRNA oligonucleotides were designed using the Invitrogen online siRNA design tool (world wide web at maidesigner.invitrogen.com). The following sequences (sense strands) and target positions were used: PHD3 siRNA: 5′-[…]-3′ (SEQ ID NO:1); scramble siRNA:5′-[…]-3′ (SEQ ID NO:2). In brief, one day after the transduction of macrophages with LV, cells were transfected using Lipofectamine 2000 (Invitrogen) according to the manufacturer's instructions. Preparation of the oligonucleotide-Lipofectamine 2000 complexes was done as followed: 25 pmol siRNA oligonucleotide (stock: 20 μM) was diluted in 50 μl Opti-MEM I reduced serum medium. […]
# NF-κB [4] = experiment: NF-κB-responsive firefly luciferase reporter assay in bone marrow-derived macrophages; format: cell-based, mice; conditions: PHD2 haplodeficient vs WT macrophages
# Experimental: Transduction and Transfection of Bone Marrow-Derived Macrophages and Lung Endothelial Cells: To express an inducible NF-κB responsive firefly luciferase reporter, commercially available lentiviral vector particles (LV) were used (Cignal Lenti NF-κB Reporter; SABiosciences). 2.5×10^5 bone marrow-derived macrophages and 10^5 primary lung endothelial cells (isolated as previously described (Mazzone et al., 2009, see above)) were seeded in a 24-well plate in DMEM 10% FBS or M199 20% FBS for eight hours. Cells were transduced with 10^8 TU/ml. Eight hours after transduction, the medium wash was replaced. After 48 hours, cells were stimulated with TNFα (20 ng/mL) for eight hours and the same amount of protein extract was read in a luminometer. For PHD3 silencing, siRNA oligonucleotides were designed using the Invitrogen online siRNA design tool (world wide web at maidesigner.invitrogen.com). The following sequences (sense strands) and target positions were used: PHD3 siRNA: 5′-[…]-3′ (SEQ ID NO:1); scramble siRNA:5′-[…]-3′ (SEQ ID NO:2). In brief, one day after the transduction of macrophages with LV, cells were transfected using Lipofectamine 2000 (Invitrogen) according to the manufacturer's instructions. Preparation of the oligonucleotide-Lipofectamine 2000 complexes was done as followed: 25 pmol siRNA oligonucleotide (stock: 20 μM) was diluted in 50 μl Opti-MEM I reduced serum medium. Lipofectamine 2000 (1.5 μl) was diluted in 50 μl Opti-MEM I reduced serum medium and incubated for five minutes at room temperature. siRNA oligonucleotides were gently mixed with Lipofectamine 2000 and allowed to incubate at room temperature for twenty minutes to form complexes. Just before transfection, the cell culture medium was removed and cells were rinsed twice with serum-free Opti-MEM I medium. The Lipofectamine 2000-siRNA oligonucleotide complexes were added to each well in 400 μl of serum-free Opti-MEM medium for five hours. Afterwards, cells were incubated in complete medium for 48 hours at 37° C. in a CO2 incubator and assayed for gene knockdown (qRT-PCR) and luciferase activity. To assess if the increased NFkB activity observed in PHD2^+/− macrophages was dependent on the hydroxylase activity of PHD2, 48 hours before transduction, 4×10^6 bone marrow-derived macrophages were resuspended in 240 μl of Opti-MEM and were electroporated (250 V, 950 uF, ∝ Ω) with 7 μg of plasmids expressing a wild-type PHD2 (PHD2^wt) or a PHD2 containing a mutation at the catalytic site (PHD2^H313A).
# PDGFB, SDF1, and Tie2 = experiment: Gene expression (qRT-PCR) in PHD2Rosa26CreERT;lox/wt peritoneal macrophages after 4-OHT; format: cell-based, mice; conditions: 2 μM, 48 hours
# Experimental: Macrophage Preparation: To harvest peritoneal macrophages (pMØ), the peritoneal cavity was washed with 5 ml of RPMI 10% FBS. The pooled cells were then seeded in RPMI 10% FBS in six-well plates (2×10^6 cells/well), twelve-well plates (1×10^6 cells/well), or 24-well plates (5×10^5 cells/well). After six hours of incubation at 37° C. in a moist atmosphere of 5% CO2 and 95% air, non-adhering cells on each plate were removed by rinsing with phosphate-buffered saline (PBS). The attached macrophages were cultured in different mediums for 12 hours or 48 hours, depending on the experiments performed, as described below. When high amounts of cells were needed (analysis for HIF accumulation and NF-κB activity), macrophages were derived from bone marrow precursors as described before (Meerpohl et al., Eur. J. Immuno. 6:213-7, 1976). Briefly, bone marrow cells (2×10^6 cells/ml) were cultured in a volume of 5 ml in a 10 cm Petri dish (non-tissue culture-treated, bacterial grade) for ten days in DMEM supplemented with 20% FBS and 30% L929 conditioned medium as a source of M-CSF. The cells obtained in those cultures are uniformly macrophages. […]
# Quantitative PCR Analysis: In order to investigate gene expression in pMØ, quantitative RT-PCR (qRT-PCR) was performed. […] Quantitative RT-PCR was perfouned with commercially available or homemade primers and probes for the studied genes. […]
# Tie2, PDGFB and SDF1 = experiment: Expression of PDGFB, SDF1 and Tie2 (qPCR) in monocytes/macrophages upon angiopoietin-1; format: cell-based, mice; conditions: monocytes/macrophages after angiopoietin-1 stimulation (50 and 250 ng/ml)
# Experimental: (§1) Quantitative PCR Analysis: In order to investigate gene expression in pMØ, quantitative RT-PCR (qRT-PCR) was performed. After preparing pMØ, the cells were cultured in normoxic condition for twelve hours, and the RNA was extracted. To analyze the gene profile of adductor, gastrocnemius, and soleus muscle, tissues were collected at baseline or 24 hours/72 hours post-ischemia and RNA was extracted. Macrophages and ECs were freshly sorted from dissected adductors as described below and RNA was extracted. Quantitative RT-PCR was perfouned with commercially available or homemade primers and probes for the studied genes. The assay ID (Applied Biosystems, Foster City, Calif.) or the sequence of primers and probes (when homemade) are listed in Table 5. RNA levels of Tie-2, SDF1 and PDGFB after inhibition of NF-κB pathway were measured by qRT-PCR on pMØ exposed for twelve hours to 500 nM 6-amino-4-(4-phenoxyphenylethylamino)quinazoline. To evaluate PHD2 levels on monocyte/macrophage cultures, 2.5×10^5 bone marrow-derived monocytes/macrophages (see above) were seeded in a 24-well plate in DMEM 10% FBS and stimulated with 50 ng/ml angiopoietin-1 (Peprotech) or 50 ng/ml angiopoietin-2 (Prospec). After 24 hours, cells were harvested for RNA extraction and cDNA preparation.
# PHD2 = PHD2 expression (qPCR) in bone marrow-derived monocyte/macrophage cultures upon cytokine stimulation; format: cell-based, mice
# Experimental: as §1, with “To evaluate PHD2 levels on monocyte/macrophage cultures, 2.5×10^5 bone marrow-derived monocytes/macrophages (see above) were seeded in a 24-well plate in DMEM 10% FBS and stimulated with 50 ng/ml angiopoietin-1 (Peprotech) or 50 ng/ml angiopoietin-2 (Prospec).” left out
molecule,measurement,setting,value
C[C@H]1C[C@@H]2[C@H]([C@@H](O)C[C@@]3(C)[C@H]2CC[C@]3(O)C(=O)CO)[C@@]2(C)C=CC(=O)C=C12 [methylprednisolone],mortality due to left ventricle rupture,[1],drastically increased mortality
"Nc1nc(O)c2ncn(COC(CO)CO)c2n1 [GCV, ganciclovir]",reduction of density of F4/80+Tie2+ cells,"F4/80+Tie2+ cells; PHD2+/- Tie2:tk-BMT mice, 72 hours post-ischemia",68±5%
same,reduction of density of F4/80+Tie2+ cells,"F4/80+Tie2+ cells; PHD2+/- Tie2:tk-BMT mice, baseline",58±11%
same,reduction of density of F4/80+Tie2+ cells,"F4/80+Tie2+ cells; WT Tie2:tk-BMT mice, 72 hours post-ischemia",39±6%
same,reduction of density of F4/80+Tie2+ cells,"F4/80+Tie2+ cells; WT Tie2:tk-BMT mice, baseline",46±10%
same,ischemic protection (fiber necrosis),[2]; 72 hours after ligation,abolished ischemic protection
same,formation of secondary and tertiary collateral arteries,"[2]; baseline, vs untreated group",completely prevented
TNF-α,NF-κB activity,NF-κB [3],increases to the same level
same,TNF-α-induced NF-κB activation,NF-κB [4],significantly stronger
4-hydroxytamoxifen,"expression of PDGFB, SDF1, and Tie2","PDGFB, SDF1, and Tie2",increased expression
B1,"expression of Tie2, PDGFB and SDF1","Tie2, PDGFB and SDF1",increased expression
same,"PHD2 levels down-regulated, dose-dependent, up to",PHD2; WT monocytes/macrophages,50 % of the basal levels
same,PHD2 down-modulation in monocytes/macrophages,PHD2; after angiopoietin-1 stimulation,40%
